# Measured values: paper PMC5920688 (Journal of veterinary pharmacology and therapeutics, 2017)
# Entries after “also recorded” stand apart in the source; their conditions may differ.
# Assays:
# horses [1] = details: 4 mg/kg i.v., ref Toutain et al., 1994; cited from earlier work
# horses [2] = details: clinical cases, ref Johnson et al., 1993, Raekallio et al., 1997; cited from earlier work
# [3] = Plasma pharmacokinetics of t-TUCB after intravenous administration; assay type: in vivo, horses; details: for AUClast (h*ng/mL)/dose: dose-corrected; for AUClast (h*ng/mL)/dose / Clast (last measured plasma concentration) / Tlast (time of last measured plasma concentration) / λz lower / λz upper: mean ± SEM; for Plasma kinetics (order): preliminary
# [4] = Synovial fluid t-TUCB concentrations after intravenous administration; assay type: in vivo; details: horses, i.v., 1 mg/kg
# [5] = tested on: horses with lipopolysaccharide-induced radiocarpal synovitis; experiment: Pain; assay type: in vivo; details: for Horses qualifying for rescue analgesia if only VAS > 50 at rest had been used: control 5/6; for Proportion of positive-to-negative responses to touch (tactile allodynia): control 1.7; for AUC of AAEP lameness scores compared to control / AUC of visual analog pain scores compared to control: first 12 h and entire 48 h
# [6] = tested on: horses with lipopolysaccharide-induced radiocarpal synovitis; assay type: in vivo
# horses [7] = experiment: Physical exam variables, hematology and serum biochemistry; assay type: in vivo
# [8] = tested on: equine soluble epoxide hydrolase (sEH); details: ref Guedes et al., 2016, cited from earlier work
# rats = details: doses as low as 0.1 mg/kg, ref Wagner et al., 2013; cited from earlier work
# [9] = Thoroughbred, Quarter Horse, Dutch Warmblood (mixed group), plasma, iv, 1 mg/kg
# [10] = Thoroughbred, Quarter Horse, Dutch Warmblood, plasma, iv, 0.1 mg/kg
# [11] = Thoroughbred, Quarter Horse, Dutch Warmblood, plasma, iv, 0.3 mg/kg
# [12] = horses, i.v., 0.1 mg/kg, plasma
# [13] = horses, i.v., 0.3 mg/kg, plasma
smiles,measurement,setting,value
CCCCC1C(=O)N(c2ccccc2)N(c2ccccc2)C1=O [phenylbutazone],Analgesic effects in carpal Freund's adjuvant arthritis model,horses [1],not readily demonstrated; also recorded: could not be demonstrated
same,Duration of post-surgical analgesia,horses [2],< 12 h
"O=C(Nc1ccc(OC(F)(F)F)cc1)N[C@H]1CC[C@H](Oc2ccc(C(=O)O)cc2)CC1 [t-TUCB, trans-4-{4-[3-(4-Trifluoromethoxy-phenyl)-ureido]-cyclohexyloxy}-benzoic acid]",Vd,[3]; [9],0.571 ± 0.104 L/kg
same,clearance,[3]; [9],0.233 mL/min/kg
same,half-life,[3]; [9],24 ± 5 h
same,AUC(0-inf),[3]; [10],2000 ± 530 ng·h/mL
same,AUC(0-t),[3]; [10],1610 ± 360 ng·h/mL
same,AUC(0-inf),[3]; [11],6370 ± 526 ng·h/mL
same,AUC(0-t),[3]; [11],5840 ± 488 ng·h/mL
same,AUC(0-t),"[3]; Thoroughbred, Quarter Horse, Dutch Warmblood, plasma, iv, 1 mg/kg",50100 ± 5600 ng·h/mL
same,AUClast (h*ng/mL)/dose,"[3]; horses, i.v., 0.1 mg/kg",16066±3595^a h*ng/mL
same,AUClast (h*ng/mL)/dose,"[3]; horses, i.v., 0.3 mg/kg",19467±1625^a h*ng/mL
same,AUClast (h*ng/mL)/dose,"[3]; horses, i.v., 1 mg/kg",50139±5604^b h*ng/mL
same,Plasma concentrations,"[3]; horses, i.v., 0.03 mg/kg",undetectable or very low
same,Clast (last measured plasma concentration),[3]; [12],17 ± 5 ng/mL
same,Tlast (time of last measured plasma concentration),[3]; [12],38 ± 5 h
same,λz lower,[3]; [12],8 ± 4 h
same,λz upper,[3]; [12],38 ± 5 h
same,Clast (last measured plasma concentration),[3]; [13],29 ± 3 ng/mL
same,Tlast (time of last measured plasma concentration),[3]; [13],48 ± 0 h
same,λz lower,[3]; [13],11 ± 5 h
same,λz upper,[3]; [13],48 ± 0 h
same,Clast (last measured plasma concentration),"[3]; horses, i.v., 1 mg/kg, plasma",538 ± 76 ng/mL
same,Tlast (time of last measured plasma concentration),"[3]; horses, i.v., 1 mg/kg, plasma",48 ± 0 h
same,λz lower,"[3]; horses, i.v., 1 mg/kg, plasma",14 ± 5 h
same,λz upper,"[3]; horses, i.v., 1 mg/kg, plasma",48 ± 0 h
same,Plasma kinetics (order),"[3]; horses, i.v., 0.1 and 0.3 mg/kg",linear or first order plasma kinetics
same,Plasma kinetics (order),"[3]; horses, i.v., highest dose (1 mg/kg)",may have approached a non-linear or zero order kinetics
same,clearance,"[3]; plasma, iv, 0.1 mg/kg",1.13 mL/min/kg
same,clearance,"[3]; plasma, iv, 0.3 mg/kg",0.8 mL/min/kg
same,AUC(0-inf),"[3]; plasma, iv, 1 mg/kg",71100 ± 5780 ng·h/mL
same,clearance,"[3]; plasma, iv, 1 mg/kg",0.233 mL/min/kg
same,half-life,"[3]; plasma, iv, 1 mg/kg",24 ± 5 h
same,Synovial fluid concentrations reached,[4],high concentrations
same,"Synovial fluid t-TUCB concentration, inflamed compared to non-inflamed joint",[4],significantly higher
same,Horses qualifying for rescue analgesia if only VAS > 50 at rest had been used,[5]; 0.03 mg/kg i.v.,5/6
same,Proportion of positive-to-negative responses to touch (tactile allodynia),[5]; 0.1 mg/kg i.v.,0.8
same,Horses qualifying for rescue analgesia if only VAS > 50 at rest had been used,[5]; 0.1 mg/kg i.v.,4/6
same,Proportion of positive-to-negative responses to touch (tactile allodynia),[5]; 0.3 mg/kg i.v.,1.3
same,Horses qualifying for rescue analgesia if only VAS > 50 at rest had been used,[5]; 0.3 mg/kg i.v.,1/4
same,Proportion of positive-to-negative responses to touch (tactile allodynia),[5]; 1 mg/kg i.v.,0.2
same,Horses qualifying for rescue analgesia if only VAS > 50 at rest had been used,[5]; 1 mg/kg i.v.,2/5
same,AUC of AAEP lameness scores compared to control,[5]; 1 mg/kg i.v.,significantly lower
same,AUC of visual analog pain scores compared to control,[5]; 1 mg/kg i.v.,significantly lower
same,AUC of AAEP lameness scores compared to control,[5]; 0.1 and 0.3 mg/kg i.v.,not the others
same,AUC of visual analog pain scores compared to control,[5]; 0.1 and 0.3 mg/kg i.v.,not the others
same,Carpus circumference compared to control,"[6]; 1 mg/kg i.v., at 36 h",reaching statistical significance
same,"Anti-inflammatory activity (inflammatory cell numbers, joint effusion, protein concentration)",[6]; 0.1-1 mg/kg i.v.,no important anti-inflammatory effects; also recorded: negligible anti-inflammatory activity
same,Carpus circumference compared to the remaining treatments,[6]; 0.3 and 1 mg/kg i.v.,increased slightly less
same,Adverse effects on physical and laboratory examinations,horses [7]; 0.03-1 mg/kg i.v.,No adverse effects were observed
same,"Effect of treatment on respiratory rate, heart rate and mean arterial pressure","horses [7]; 0.1, 0.3 and 1 mg/kg i.v., after LPS",not of treatment
same,Hematology and serum biochemistry results,horses [7]; all treatments (0.03-1 mg/kg i.v.),within the normal laboratory reference range
same,In vitro 95% inhibitory concentration (IC95),[8]; equine sEH,0.0964 µg/mL
same,Potency against equine sEH compared to rat sEH,"[8]; in vitro, Wagner et al., 2013",approximately 3 fold
same,Mechanical hyperalgesia to intra-plantar LPS,rats,significantly attenuated
